Paper PMC7462607 (eLife, 2020)
“And” between values parts separate entries of the source, which are not always exact repeats. Equal entries are not always repeated.

Assays:
FLAG-DDB1/CDK12KD/CCNKΔC = molecular target: T1, FLAG-DDB1/CDK12KD/CCNKΔC (Homo sapiens, UniProt Q9NYV4); assay: FLAG-DDB1:CDK12KD/CCNKΔC pull down assay; type: binding
T1 construct: Human CDK12KD (residues 715–1052); 6xHis (PreScission site) (N, cleaved yes); made in house; host or cells: Sf9 or High Five (CDK12KD/CCNKΔC, co-infected with yeast CAK1); 293F (FLAG-Avi-DDB1)
T1 sequence (Q9NYV4 715-1052, stated change not applied): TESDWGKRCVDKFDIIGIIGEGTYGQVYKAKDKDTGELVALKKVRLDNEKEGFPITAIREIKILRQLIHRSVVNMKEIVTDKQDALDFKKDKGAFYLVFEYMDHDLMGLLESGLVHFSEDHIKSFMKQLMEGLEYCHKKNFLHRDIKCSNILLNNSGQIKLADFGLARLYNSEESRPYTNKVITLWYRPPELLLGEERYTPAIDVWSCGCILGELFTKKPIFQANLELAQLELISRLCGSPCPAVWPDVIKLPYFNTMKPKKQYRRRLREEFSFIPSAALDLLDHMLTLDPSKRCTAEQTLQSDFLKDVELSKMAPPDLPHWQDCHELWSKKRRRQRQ
T1 sequence (O75909 11-267 partner limits assumed): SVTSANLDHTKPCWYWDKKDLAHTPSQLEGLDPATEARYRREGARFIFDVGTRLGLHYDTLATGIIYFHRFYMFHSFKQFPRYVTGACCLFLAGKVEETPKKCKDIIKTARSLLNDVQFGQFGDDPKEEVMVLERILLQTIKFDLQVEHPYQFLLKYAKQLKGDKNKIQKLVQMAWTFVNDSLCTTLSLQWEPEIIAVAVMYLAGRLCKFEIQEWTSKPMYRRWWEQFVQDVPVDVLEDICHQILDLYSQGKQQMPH
T1 sequence (Q16531 whole entry partner, the tested form may be a part): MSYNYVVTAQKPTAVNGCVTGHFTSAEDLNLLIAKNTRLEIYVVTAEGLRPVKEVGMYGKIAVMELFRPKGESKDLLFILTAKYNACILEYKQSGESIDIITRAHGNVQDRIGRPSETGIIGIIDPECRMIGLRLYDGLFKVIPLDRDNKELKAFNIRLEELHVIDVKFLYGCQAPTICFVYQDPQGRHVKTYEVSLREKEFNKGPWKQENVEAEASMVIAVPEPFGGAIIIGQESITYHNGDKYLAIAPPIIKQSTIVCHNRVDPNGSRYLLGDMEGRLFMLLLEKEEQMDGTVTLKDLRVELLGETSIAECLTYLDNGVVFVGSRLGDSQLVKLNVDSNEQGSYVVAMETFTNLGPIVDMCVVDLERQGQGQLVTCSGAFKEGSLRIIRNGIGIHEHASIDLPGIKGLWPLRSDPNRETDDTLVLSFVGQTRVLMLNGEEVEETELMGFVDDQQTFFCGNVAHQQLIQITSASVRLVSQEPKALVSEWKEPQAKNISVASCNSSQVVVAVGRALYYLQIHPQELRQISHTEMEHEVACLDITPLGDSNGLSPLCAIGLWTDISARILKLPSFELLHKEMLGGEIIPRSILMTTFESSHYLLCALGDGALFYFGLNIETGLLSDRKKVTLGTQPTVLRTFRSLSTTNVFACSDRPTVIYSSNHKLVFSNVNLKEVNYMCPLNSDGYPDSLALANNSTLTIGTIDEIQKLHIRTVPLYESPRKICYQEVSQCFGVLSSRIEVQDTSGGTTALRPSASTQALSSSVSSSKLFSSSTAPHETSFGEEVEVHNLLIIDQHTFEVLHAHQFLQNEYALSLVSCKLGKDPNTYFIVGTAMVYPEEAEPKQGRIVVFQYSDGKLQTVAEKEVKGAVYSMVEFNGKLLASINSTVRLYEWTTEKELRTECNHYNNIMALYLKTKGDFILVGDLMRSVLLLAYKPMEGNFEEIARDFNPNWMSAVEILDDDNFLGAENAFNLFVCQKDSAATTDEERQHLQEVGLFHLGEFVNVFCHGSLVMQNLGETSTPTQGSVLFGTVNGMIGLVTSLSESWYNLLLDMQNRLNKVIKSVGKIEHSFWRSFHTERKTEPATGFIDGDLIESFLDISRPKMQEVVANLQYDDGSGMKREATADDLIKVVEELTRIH
Procedure: FLAG-Avi-DDB1 (18.2 µg) was mixed with CDK12KD/CCNKΔC (10 µg) at 1:1 molar ratio in 500 μL of pulldown assay buffer containing 50 mM HEPES, pH 7.5, 300 mM NaCl, 0.5 mM TCEP. The protein mix was then supplemented with DMSO or HQ461. After 30 min of incubation on ice, the protein-compound mix was incubated with anti-FLAG M2 affinity gel for another 30 min on a rotator at 4 °C. Protein-bound beads were washed three times with the pulldown assay buffer and bound proteins were eluted with 0.2 mg/mL FLAG peptide. Eluted proteins were analyzed by SDS-PAGE followed by coomassie blue staining.

A549 cells = assay: Cell viability assay (CellTiter-Glo), A549; type: cell-based, Homo sapiens; conditions: for CellTiter-Glo (ATP): A549, raw signal, Rep 1-3
Procedure: Seven hundred A549 cells or 1,000 HCT-116 cells in 50 µL of medium were plated per well in 384-well flat clear bottom white polystyrene TC-treated microplates (Corning, Corning, USA). After overnight attachment, cells were dosed with a serial dilution of HQ461 with a D300e digital dispenser (Tecan, Männedorf, Switzerland). Cell survival was measured 72 hr later using CellTiter-Glo luminescent cell viability assay kit (Promega, Madison, USA) following vendor instructions. Luminescence was recorded by EnVison multimode plate reader (PerkinElmer, Waltham, USA). IC50 was determined with GraphPad Prism using baseline correction (by normalizing to DMSO control), the asymmetric (five parameter) equation, and least squares fit.

[1] = tested on: BRCA1, BRCA2, ATR, ERCC4 mRNA; assay: RT-qPCR of BRCA1, BRCA2, ATR and ERCC4 mRNAs; type: cell-based, Homo sapiens
Procedure: Total RNA was extracted from HQ461-treated A549 cells using TRNzol (Tiangen, Beijing, China). Reverse transcription of mRNA into cDNA was performed using the 5X All-In-One RT mastermix kit with AccuRT genomic DNA removal kit (Abm, Richmond, Canada), and qPCR was performed using TB Green Premix Ex Taq (Tli RNaseH Plus) (Takara, Otsu, Japan) with the CFX96 Real-Time PCR Detection System (Bio-Rad, Hercules, USA). GAPDH was used for normalization. Primer sequences are as follows: GAPDH-forward: 5’-[…]-3’; GAPDH-reverse: 5’-[…]-3’; BRCA1-forward: 5’-[…]-3’; BRCA1-reverse: 5’-[…]-3’; BRCA2-forward: 5’-[…]-3’; BRCA2-reverse: 5’-[…]-3’; ATR-forward: 5’-[…]-3’; ATR-reverse: 5’-[…]-3’; ERCC4-forward: 5’-[…]-3’; ERCC4- reverse: 5’-[…]-3’. Each experiment was performed with three technical replicates.

CCNK = assay: Western blotting of CCNK protein level in A549 cells; type: cell-based, Homo sapiens
Procedure: Standard SDS-PAGE and western blotting procedures were used with the following modifications. For preparation of total lysates, cells were rinsed with DPBS to remove residual medium and then lysed in 20 mM HEPES-NaOH, pH 8.0, 10 mM NaCl, 2 mM MgCl2, 1% SDS freshly supplemented with 0.5 units/µL of benzonase and 1x cOmplete, Mini, EDTA-free protease inhibitor cocktail (Roche, Bazel, Switzerland). Protein concentrations of the resulting lysates were quantified by the BCA method. Between 30 to 60 µg of proteins were resolved on SDS-PAGE and transferred to nitrocellulose membranes with a pore size of 0.5 μm. Membranes were blocked in 5% nonfat milk PBST (0.1% v/v Tween-20) for 30 min before blotting with antibodies. The following primary antibodies were used by dilution in 5% nonfat milk PBST: anti-NRF2 (Abcam, Cambridge, UK, ab62352, 1:4,000), anti-β-Actin-HRP (Huaxingbio, Beijing, China, HX18271,1:10,000), anti-α-Tubulin-HRFP (MBL Life Science, Japan, PM054-7, 1:10,000), anti-DDB1 (Abcam, Cambridge, UK, ab109027, 1:10,000), anti-RBX1 (Proteintech, Wuhan, China, 14895–1-AP, 1:5,000), anti-UBE2G1 (Proteintech, Wuhuan, China, 12012–1-AP, 1:2,000), anti-CDK12 (Cell Signaling Technology, Danvers, USA, 11973S,1:4,000), anti-CCNK (Bethyl lab, Montgomery, USA, A301-939A-T,1:4,000), anti-FLAG-HRP (Sigma-Aldrich, MO, USA, A8592, 1:10,000), anti-HA (BioLegend, San Diego, USA, 901533, 1:4,000), anti-RNA polymerase II subunit B1 (phospho CTD Ser-2) clone 3E10 (Sigma-Aldrich, MO, USA, 04–1571, 1:5,000), and anti-RNA polymerase II CTD repeat YSPTSPS antibody clone 8WG16 (Abcam, Cambridge, UK, ab817, 1:5,000). The following HRP-linked secondary antibodies were used by dilution in PBST: anti-rabbit IgG (Cell Signaling Technology, Danvers, USA, 7074S, 1:10,000), anti-mouse IgG (Zsbio, Beijing, China, ZB-2305, 1:10,000), and anti-rat IgG, (Sino Biological, Beijing, China, SSA005, 1:10,000). M5 HiPer ECL Western HRP Substrate (Mei5bio, Beijing, China, MF074-01) was used for the detection of HRP enzymatic activity. Western blot images were taken with a VILBER FUSION FX7 imager.

Cc1cccc(Nc2nc(CC(=O)Nc3ncc(C)s3)cs2)n1 [HQ461, 2-(2-((6-methylpyridin-2-yl)amino)thiazol-4-yl)-N-(5-methylthiazol-2-yl)acetamide]
complex formation of DDB1 with CDK12KD/CCNKΔC (pulldown) (FLAG-DDB1/CDK12KD/CCNKΔC): near-stoichiometric complex
CellTiter-Glo (ATP) (A549 cells; HQ461 1.6e-6 M): 1.74E+06 and 1.39E+06 and 1.50E+06
CellTiter-Glo (ATP) (A549 cells; HQ461 3.12e-6 M): 360450 and 439670 and 341920
CellTiter-Glo (ATP) (A549 cells; HQ461 6.31e-6 M): 173530 and 234990 and 251210
CellTiter-Glo (ATP) (A549 cells; HQ461 1.25e-5 M): 146290 and 177880 and 172140
CellTiter-Glo (ATP) (A549 cells; HQ461 2.51e-5 M): 65570 and 94080 and 92090
CellTiter-Glo (ATP) (A549 cells; HQ461 2.00E-07 M): 4.81E+06 and 4.79E+06 and 4.78E+06
CellTiter-Glo (ATP) (A549 cells; HQ461 3.96E-07 M): 3.92E+06 and 3.86E+06 and 3.80E+06
CellTiter-Glo (ATP) (A549 cells; HQ461 4.80E-08 M): 4.68E+06 and 4.34E+06 and 4.06E+06
CellTiter-Glo (ATP) (A549 cells; HQ461 7.99E-07 M): 3.98E+06 and 3.60E+06 and 3.16E+06
CellTiter-Glo (ATP) (A549 cells; HQ461 9.99E-08 M): 3.91E+06 and 3.89E+06 and 3.96E+06
IC50 (A549 cells; Homo sapiens, A549, 72 hr, CellTiter-Glo): 1300 nM
inhibitory effect on the expression of DDR genes ([1]; A549 with CDK12 G731E or G731R mutation): abolished
mRNA levels of BRCA1, BRCA2, ATR and ERCC4 ([1]; parental A549, 10 µM HQ461 for 16 hr): reductions in the mRNA levels of all four tested DDR genes
reduction of the CCNK protein level (CCNK; A549, 4 hr treatment): > 8 fold
CCNK protein level in cells with CDK12 G731E or G731R mutation (CCNK; A549 CDK12 G731E/G731R cells): not affected
